# Assays:
# [1] = tested on: MCF-7 breast cancer cells; assay: MTT cell viability under nutrient-deprived conditions, MCF-7; type: cell-based; conditions: Homo sapiens, MCF7, up to 48 h, average ± SD
# Experimental: (§1) Cells were culture using nutrient-deprived cell culture conditions (i.e. cell culture media with no glucose, L-glutamine, HEPES and sodium pyruvate) to mimic conditions similar to the tumour microenvironment. Note that these experiments were performed only using breast cancer cells. MCF-7 and MDA-MB-231 cells were seeded in 96-well plates (Corning Inc., NY, USA) at a density of 1 × 10^4 and 6.7 × 10^3 cells/cm^2, respectively. Cells were incubated with coumarin derivatives at concentrations of 0.1, 1, 10, 50, 100 and 250 μM up to 48 h. Untreated cells (negative) and cells incubated with 0.5% (v/v) DMSO in complete media (positive) were used as controls.
# (§2) For each treatment, cell viability was measured via MTT assay after 48-h incubation as following described. Cell culture medium was replaced with 150 μL of fresh medium and 30 μL of MTT solution, and cells were incubated for 4 h (37 °C, 5% CO2). After the formazan crystal formation, cell culture medium was removed from each well and replaced with 200 μL of DMSO. The absorbance was measured at 540-nm wavelength using a plate reader (Synergy 2 Biotek plate reader, Gen5 software).
# (§3) IC50 values were calculated (nonlinear regression, normalized response–variable slope) with GraphPad Prism (version 7.04). Values were ranked and classified as: high toxicity, moderate toxicity, poor toxicity and no toxicity. Threshold were set as 60, 80 and > 100 μM, respectively. The selection was used in order to test only the most toxic coumarins under cell culture condition more relevant to the tumour microenvironment, i.e. deprived cell culture media (Sect. 3.3).
# (§4) On that basis, we exposed the breast cancer cells to nutrient-deprived conditions where culture media were supplemented only with 2.5% v/v FBS, but not additional glucose, L-glutamine, sodium pyruvate. The coumarins tested were auraptene (4k), umbelliprenin (4l) and analogues 4d, 4c and 4g. […] In similar studies, Zhang et al. and Jun et al. reported the high preferential cytotoxicity of umbelliprenin (4l) and its C6 analogue under NDC against pancreatic cancer cells. It should be therefore noted that these derivatives could represent a potential new tool for treating aggressively metastatic hypoxic tumours. The exact mechanism of action, though, should be further investigated.
# [2] = tested on: MCF-7 breast cancer cells; assay: MTT cell viability, 48-h incubation, complete medium, MCF-7; type: cell-based, human; conditions: for IC50: Homo sapiens, MCF7, 48-h incubation, complete medium, mean ± SD
# Experimental: (§5) Unless otherwise specified, all cell culture experiments were performed in a humidified 5% (v/v) CO2 air atmosphere at 37 °C in complete medium, and cell culture growth media were supplemented with 10% (v/v) foetal bovine serum and 2 mM L-glutamine. Human breast adenocarcinoma cell lines were cultured, maintained at densities lower than 1 × 10^6 cells/cm^2 and discarded upon reaching passage number 60. Stromal healthy cells (human colorectal fibroblasts, 18Co) were cultured using complete DMEM medium supplemented also with 1% (v/v) penicillin–streptomycin. Cells were maintained at densities less than 1 × 10^6 cells/cm^2 and discarded upon reaching passage number 12.
# (§6) The full library of coumarins was tested in both breast cancer cell lines, i.e. MCF-7 and MDA-MB-231. Fibroblast were used as “healthy” control. Stocks of compounds 3a–3c, 4a–4m and 5 were dissolved in pure DMSO and then diluted in complete media. (Note that DMSO concentration was kept lower than 0.5% (v/v).) Briefly, MCF-7 and MDA-MB-231 cells were seeded in 96-well plates (3799, Corning Inc., NY, USA) at a density of 1 × 10^4 and 6.7 × 10^3 cells/cm^2, respectively, whereas 18Co fibroblasts were seeded at a density of 1 × 10^4 cells/cm^2. Cells were incubated with coumarin derivatives at concentrations 0.1, 1, 10, 50, 100 and 250 μM for 48 h. Untreated cells (negative) and cells incubated with 0.5% (v/v) DMSO in complete media (positive) were used as controls.
# as §2, §3
# 18Co colon fibroblasts = assay: MTT cell viability, 48-h incubation, 18Co fibroblasts (healthy control); type: cell-based, human; conditions: for IC50: Homo sapiens, Fibroblast, 48-h incubation, healthy control, mean ± SD
# Experimental: as §5, §6, §2, §3
# [3] = tested on: MDA-MB-231 breast cancer cells; assay: MTT cell viability under nutrient-deprived conditions, MDA-MB-231; type: cell-based; conditions: Homo sapiens, up to 48 h, average ± SD
# Experimental: as §1, §2, §3, §4
# [4] = tested on: MDA-MB-231 breast cancer cells; assay: MTT cell viability, 48-h incubation, complete medium, MDA-MB-231; type: cell-based, human; conditions: for IC50: Homo sapiens, MDA-MB-231, complete medium, mean ± SD
# Experimental: as §5, §6, §2, §3
IC50 [1] [µM],melting point [°C],IC50 [2] [µM],IC50 [3] [µM],IC50 [4] [µM],Structure (SMILES),"fold more cytotoxic than monosubstituted analogue 4a ([2]; MCF-7 cells, 4g versus 4a)",IC50 (18Co colon fibroblasts) [µM],"toxicity in words, 18Co fibroblasts (18Co colon fibroblasts; healthy control cells)","cytotoxicity in words, MDA-MB-231 [4]"
35 ± 9,90,69 ± 14,11 ± 2,144 ± 16,"CC(C)=CCOc1cc(OCC=C(C)C)c2c(C)cc(=O)oc2c1 [4g, 5,7-Diprenyloxy-4-methyl-2H-chromen-2-one]",approximately 2.5 times,216 ± 23,,
,,0.97,,0.48,"COc1cccc2c1C(=O)c1c(O)c3c(c(O)c1C2=O)C[C@@](O)(C(=O)CO)C[C@@H]3O[C@H]1C[C@H](N)[C@H](O)[C@H](C)O1 [doxorubicin, reference compound]",,,,
,,143 ± 11,,175 ± 33,"CC(C)=CCOc1ccc2ccc(=O)oc2c1 [4j, 7-Prenyloxy-2H-chromen-2-one]",,,,
,,129 ± 13,,137 ± 9,"CC(C)=CCC/C(C)=C/COc1ccc2c(C)cc(=O)oc2c1 [4b, 7-Geranyloxy-4-methyl-2H-chromen-2-one]",,,,
,130,225 ± 19,,206 ± 9,"CCCc1cc(=O)oc2cc(O)ccc12 [3a, 7-Hydroxy-4-propyl-2H-chromen-2-one]",,,,
,,> 250,,> 250,"Cc1cc(=O)oc2cc(O)cc(O)c12 [3b, 5,7-Dihydroxy-4-methyl-2H-chromen-2-one]",,,,
,79,> 250,,133 ± 34,"CCCc1cc(=O)oc2cc(OC/C=C(\C)CCC=C(C)C)cc(OC/C=C(\C)CCC=C(C)C)c12 [4i, 5,7-Digeranyloxy-4-propyl-2H-chromen-2-one]",,,,
,72 to 73,> 250,,187 ± 66,"CC(C)=CCC/C(C)=C/CC/C(C)=C/CC/C(C)=C/COc1ccc2ccc(=O)oc2c1 [4m, 7-Geranylgeranyloxy-coumarin]",,,,
,,> 250,,> 250,"CC(=O)Oc1cc(OC(C)=O)c2c(C)cc(=O)oc2c1 [compound 5, 5,7-Diacetyloxy-4-methyl-2H-chromen-2-one]",,,,
19 ± 3,,105 ± 3,51 ± 9,110 ± 29,"CC(C)=CCCC(C)=CCCC(C)=CCOc1ccc2c(C)cc(=O)oc2c1 [4c, 7-Farnesyloxy-4-methyl-2H-chromen-2-one]",,> 250,,
,47,124 ± 39,,143 ± 34,"CCCCCCCCOc1ccc2c(CCC)cc(=O)oc2c1 [4f, 7-Octyloxy-4-propyl-2H-chromen-2-one]",,,,
,84,179 ± 35,,169 ± 23,"CC(C)=CCOc1ccc2c(C)cc(=O)oc2c1 [4a, 7-Prenyloxy-4-methyl-2H-chromen-2-one]",,,,
,89,> 250,,> 250,"CCCc1cc(=O)oc2cc(OCC=C(C)C)ccc12 [4e, 7-Prenyloxy-4-propyl-2H-chromen-2-one]",,,,
9 ± 1,,98 ± 9,7 ± 2,88 ± 3,"CC(C)=CCCC(C)=CCCC(C)=CCOc1ccc2ccc(=O)oc2c1 [4l, 7-Farnesyloxy-coumarin]",,> 250,,
29 ± 3,51,82 ± 19,63 ± 5,113 ± 7,"CCCCCCCCOc1ccc2c(C)cc(=O)oc2c1 [4d, 4-Methyl-7-octyloxy-2H-chromen-2-one]",,206 ± 17,,slight toxic effect
,,> 250,,> 250,"O=c1ccc2ccc(O)cc2o1 [3c, 7-hydroxy-coumarin]",,> 250,,
,71 to 72,234 ± 76,,159 ± 61,"CCCc1cc(=O)oc2cc(OCC=C(C)C)cc(OCC=C(C)C)c12 [4h, 5,7-Diprenyloxy-4-propyl-2H-chromen-2-one]",,,,

Structure (SMILES),IC50 [1] [µM],melting point [°C],IC50 [2] [µM],IC50 [3] [µM],IC50 [4] [µM],"fold more cytotoxic than monosubstituted analogue 4a ([2]; MCF-7 cells, 4g versus 4a)",IC50 (18Co colon fibroblasts) [µM],"toxicity in words, 18Co fibroblasts (18Co colon fibroblasts; healthy control cells)","cytotoxicity in words, MDA-MB-231 [4]"
"CC(C)=CCC/C(C)=C/COc1ccc2ccc(=O)oc2c1 [4k, 7-Geranyloxy-2H-chromen-2-one]",14 ± 5,,70 ± 5,12 ± 8,60 ± 4,,176 ± 62,some toxicity,
